Laboratory results taken from BindingDB's records for doi:10.3109/14756366.2011.639016 (Gazi University, 2013).

Legend:
[1] = biological target: Carbonic anhydrase 1 (Homo sapiens, UniProt P00915); experiment: Esterase Activity Assay; settings: pH 7.4
Experimental: (§1) The enzymatic reaction contained 1.4 mL 0.05 M Tris-SO4 buffer(pH 7.4), 1 mL 3 mM 4-nitrophenylacetate, 0.5 mL H2O and 0.1 mL enzyme solution (total volume, 3.0 mL). A reference measurement was obtained by preparing themixture without the enzyme solution. All measurements were made in triplicate.

[2] = biological target: Carbonic anhydrase 2 (Homo sapiens, UniProt P00918); experiment: Esterase Activity Assay; settings: pH 7.4
Experimental: as §1

Chain of Carbonic anhydrase 1 (P00915 whole entry): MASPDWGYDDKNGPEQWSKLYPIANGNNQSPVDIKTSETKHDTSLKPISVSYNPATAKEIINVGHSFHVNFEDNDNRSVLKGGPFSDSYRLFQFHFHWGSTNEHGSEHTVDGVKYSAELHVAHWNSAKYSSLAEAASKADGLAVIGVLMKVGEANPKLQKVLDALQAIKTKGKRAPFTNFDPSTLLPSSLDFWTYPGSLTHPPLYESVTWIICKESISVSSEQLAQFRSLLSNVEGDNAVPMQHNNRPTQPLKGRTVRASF

IC50 [1] [µM]	Ki [1] [µM]	IC50 [2] [µM]	Ki [2] [µM]	Structure (SMILES)
33	23.8	56	41	Cc1ccc(-c2c(C#N)c(N)nc3c2CCC3)o1 [CA inhibitor, 5d]
53	50.3			Cc1ccc(-c2c(C#N)c(N)nc3c2CCSC3)o1 [CA inhibitor, 5l]

Second part, the compound before the results:

Structure (SMILES)	IC50 [1] [µM]	Ki [1] [µM]	IC50 [2] [µM]	Ki [2] [µM]
Cc1ccc(-c2c(C#N)c(N)nc3c2CCCC3)s1 [2-azanyl-4-(5-methylthiophen-2-yl)-5,6,7,8-tetrahydroquinoline-3-carbonitrile]	34	31	99	182
Cc1ccc(-c2c(C#N)c(N)nc3c2CCCCC3)s1 [CA inhibitor, 5c]	40	30.6	77	73
Cc1ccc(-c2c(C#N)c(N)nc3c2CCCC3)o1 [CA inhibitor, 5e]	48	89		
Cc1ccc(-c2c(C#N)c(N)nc3c2CCCCC3)o1 [CA inhibitor, 5f]	53	58.5		
Cc1ccc(-c2c(C#N)c(N)nc3c2CCSC3)s1 [CA inhibitor, 5i]	55	38.4		
